Test results taken from the NIST ThermoML archive (doi:10.1021/acs.jced.8b00302).
Numbers after ± are expanded uncertainties.

Assay: wn = mass fraction of the nth substance listed
Conditions: 298.2 K, 100 kPa, Liquid, Gravity bottle method

Compound | mass density (w1 = 0.2743) [kg/m3] | mass density (w1 = 0.6463) [kg/m3] | mass density (w1 = 0.3365) [kg/m3]
O=S(=O)([O-])[O-].[Mg+2] [magnesium sulfate] + O | 1293 ± 10 |  | 
O=S(=O)([O-])[O-].[Rb+].[Rb+] [rubidium sulfate] + O |  | 2016.2 ± 10 | 
O=S(=O)([O-])[O-].[Cs+].[Cs+] [cesium sulfate] + O |  | 2016.2 ± 10 | 1363.1 ± 10
